Results taken from PubChem BioAssay AID1794807 (Yongcheng Song lab at Baylor College of Medicine, 2022).
Active and inactive are the calls of the source.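 The calls were made as follows: active = half-maximal effective concentration EC50 under 50 µM in the live-cell XTT test; inactive = the rest.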

System: MV4;11 AML cells, XTT viability
Test: antiproliferative activity against MV4,11 AML cells – cell-based, XTT absorbance, dose response (AID 1794807)

| SMILES | EC50 |
| --- | --- |
| O=C(NCC1CCNCC1)c1cc2cc(-c3cn[nH]c3)ccc2[nH]1 | > 50 µM (inactive) |
| NCc1ccc(-c2ccc3cc(C(=O)NCC4CCNCC4)oc3c2)cc1 | 50 µM (inactive) |
| O=C(NCC1CCNCC1)c1cc2ccc(-c3ccc(N4CCCC4)cc3)cc2s1 | 8.7 µM |
| O=C(NCC1CCNCC1)c1cc2cc(-c3ccc(N4CCCCC4)cc3)ccc2[nH]1 | 22 µM |
| O=C(NCC1CCNCC1)c1cc2ccc(-c3ccc(N4CCCCC4)cc3)cc2s1 | 9.6 µM |
| NC(=O)c1ccc(-c2ccc3cc(C(=O)NCC4CCNCC4)sc3c2)cc1 | > 50 µM (inactive) |
| O=C(NCC1CCNCC1)c1c[nH]c2cc(-c3ccc(N4CCCC4)cc3)ccc12 | 26 µM |
| O=C(NCC1CCNCC1)c1cc2cc(-c3ccc(N4CCCCC4)cc3)ccc2s1 | 8.2 µM |
| O=C(NCC1CCNCC1)c1coc2cc(-c3ccc(N4CCCCC4)cc3)ccc12 | 21 µM |
| O=C(NCC1CCNCC1)c1c[nH]c2cc(-c3ccc(N4CCCCC4)cc3)ccc12 | 33 µM |
